Consider two compounds from patent publication US9216960B2, “Spiro[2.4]heptanes for treatment of Flaviviridae infections” (University of Georgia Research Foundation, Inc., priority 2012, dated 2015).

Series [1] relates to hepatitis C virus genotype 1B. The following applies: Hu7 RNA replicon assay; cited from earlier work.
Series [2] deals with hepatitis C virus genotype 1A. The following applies: Hu7 RNA replicon assay; cited from earlier work.

`O=c1ccn([C@H]2[C@H](O)[C@H](O)[C@@H](CO)C23CC3)c(=O)[nH]1` gave a melting point of 114 to 116 °C.
With `Nc1ncnc2c1ncn2[C@H]1[C@H](O)[C@H](O)[C@@H](CO)C12CC2` [cyclopropy-spirocarbocyclic adenosine, (4R,5S,6R,7R)-4-(6-amino-9H-pur-9-yl)-7-(hydroxymethyl)spiro[2.4]heptane-5,6 diol], the values for the EC50 in series [1] and in series [2] were 0.368 µM and 0.273 µM, respectively.
